Measurements published in US8188326B2, “Process for producing adamantane” (Mitsubishi Gas Chemical Company, Inc., priority 2008, dated 2012).

Format: physicochemical
Method: FIG. 1 is a graph showing the measurement results of the solubility of adamantane (hereinafter, occasionally referred to simply as “ADM”) in TCD (mol %=ADM mol/(exo-TCD+endo-TCD+ADM)mol×100).
Specifically, at 80° C., with respect to the purity of 80% of mixed TCD containing exo-TCD of 99% and endo-TCD of 1% (hereinafter, referred to simply as “exo-TCD (99)”), the total ADM solubility is 20 mol %. […] It is preferable to control the yield (generation amount) of adamantane to be equal to or less than such a level of ADM solubility.

SMILES: C1C2CC3CC1CC(C2)C3 [adamantane, tricyclo[3.3.1.1^3,7]decane]
- total ADM solubility of adamantane with respect to TCD: 12.3 mol %
